Data set [1] in a line: Hydrolysis. Particulars: for Vmax: HLS9, PBS pH 7.4, 37 °C, unit for ACEIs other than enalapril; for Km: human, pooled human liver s9 fractions (HLS9), pH 7.4; for Hydrolysis to active metabolite by human liver s9 fractions: prodrug 100 μM, 3 concentrations of HLS9.
Data set [2] in a line: Hydrolysis by human kidney s9 fractions. Particulars: substrate 100 μM, 3 concentrations of HKS9. Format: in vitro ADME.
Data set [3] in a line: Hydrolysis by human intestine s9 fractions. Format: in vitro ADME. To be noted: substrate 100 μM, 3 concentrations of HIS9.
The target in data set [4] is T1, CES1 variant G143E (Homo sapiens, UniProt P23141, G142E).
T1 sequence (P23141 18-568 isoform P23141-2 G143E limits assumed): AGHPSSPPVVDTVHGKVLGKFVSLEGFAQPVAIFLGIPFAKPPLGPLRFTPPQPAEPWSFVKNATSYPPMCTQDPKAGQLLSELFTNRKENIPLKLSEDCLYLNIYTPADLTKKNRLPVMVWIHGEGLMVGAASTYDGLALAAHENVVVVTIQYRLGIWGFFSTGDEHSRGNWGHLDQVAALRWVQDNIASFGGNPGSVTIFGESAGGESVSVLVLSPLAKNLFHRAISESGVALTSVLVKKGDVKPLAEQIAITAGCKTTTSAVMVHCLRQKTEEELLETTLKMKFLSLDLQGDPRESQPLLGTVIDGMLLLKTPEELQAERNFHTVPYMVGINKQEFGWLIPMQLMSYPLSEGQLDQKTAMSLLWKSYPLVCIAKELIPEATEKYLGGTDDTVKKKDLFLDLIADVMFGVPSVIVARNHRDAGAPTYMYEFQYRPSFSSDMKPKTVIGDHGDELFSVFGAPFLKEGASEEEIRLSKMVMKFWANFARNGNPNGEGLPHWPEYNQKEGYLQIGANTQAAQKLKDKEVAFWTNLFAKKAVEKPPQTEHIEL
The data set can be described thus: Hydrolysis by s9 fractions of cells stably expressing the CES1 variant G143E. To be noted: prodrug 100 μM, 3 concentrations of cell s9.

The target in data set [5] is T2, wild type (WT) CES1 (Homo sapiens, UniProt P23141).
T2 sequence (P23141 18-568 isoform P23141-2 limits assumed): T1 sequence (P23141 18-568 isoform P23141-2 G143E limits assumed) with E126G
To be noted: prodrug 100 μM, 3 concentrations of cell s9.

For data set [6] the following is noted: ref [24]; cited from earlier work.
For data set [7], the target named is T1, CES1 variant G143E. To be noted: in vitro function study; ref [13], [15], [22], [23]; cited from earlier work.
The conditions of data set [8]: Japanese cancer patients receiving irinotecan; ref [21]; cited from earlier work.
For data set [9] the following is noted: after oseltamivir; ref [26]; cited from earlier work.
For data set [10] the following is noted: ref [20]; cited from earlier work.
The test system of data set [11] is CES1 in individual human liver s9 fractions. Format: in vitro ADME. Particulars: CES1 expression comparable to pooled HLS9.
Substrate in data set [12]: CCC[C@H](N[C@@H](C)C(=O)N1[C@H](C(=O)O)C[C@@H]2CCCC[C@@H]21)C(=O)OCC
The data set can be described thus: not read. Particulars: other: WT CES1 cell s9; pH 7.4.

Substrate in data set [13]: CCOC(=O)[C@H](CCc1ccccc1)N[C@@H](C)C(=O)N1CCC[C@H]1C(=O)O
The experiment in a line: not read. Particulars: other: WT CES1 cell s9; pH 7.4.

Substrate in data set [14]: CCOC(=O)[C@H](CCc1ccccc1)N[C@@H](C)C(=O)N1[C@H](C(=O)O)C[C@@H]2CCC[C@@H]21
The data set can be described thus: not read. To be noted: other: WT CES1 cell s9; pH 7.4.

Substrate in data set [15]: CCC(=O)O[C@@H](O[P@](=O)(CCCCc1ccccc1)CC(=O)N1C[C@H](C2CCCCC2)C[C@H]1C(=O)O)C(C)C
The data set can be described thus: not read. To be noted: other: WT CES1 cell s9; pH 7.4.

Substrate in data set [16]: CCOC(=O)[C@H](CCc1ccccc1)N[C@@H](C)C(=O)N1Cc2cc(OC)c(OC)cc2C[C@H]1C(=O)O
The experiment in a line: not read. To be noted: other: WT CES1 cell s9; pH 7.4.

Data on 13 molecules can be found in article PMC6329299 (The pharmacogenomics journal, 2015).

As usually defined, the Km is the substrate concentration at which the rate is half of its maximum.

Numbering of substitutions follows the chain as printed. Where a name gives a salt, the structure may show the parent alone.

Consider `CCC(=O)O[C@@H](O[P@](=O)(CCCCc1ccccc1)CC(=O)N1C[C@H](C2CCCCC2)C[C@H]1C(=O)O)C(C)C` [Fosinopril, Fosinopril sodium salt], for which, in [1], the Vmax stood at 1.4 ± 0.2 nmole/min/mg protein, the Km is 471 ± 212 µM and the “Hydrolysis to active metabolite by human liver s9 fractions” value (“Hydrolysis … by human liver s9 fractions” below) is “efficiently hydrolyzed”. Moreover, the “Hydrolysis by human kidney s9 fractions” value in data set [2] is “No appreciable activation”. Besides, the “Hydrolysis by human intestine s9 fractions” value in data set [3] was “No appreciable activation”.

As for `CCOC(=O)[C@H](CCc1ccccc1)N[C@@H](C)C(=O)N1Cc2cc(OC)c(OC)cc2C[C@H]1C(=O)O` [Moexipril, moexipril hydrochloride], in data set [1], the Vmax was 4.4 ± 0.3 nmole/min/mg protein, the Km was determined as 1460 ± 266 µM and the “Hydrolysis … by human liver s9 fractions” value is recorded as “efficiently hydrolyzed”. Further, the “Hydrolysis by human kidney s9 fractions” value in [2] is “No appreciable activation”. Moreover, the “Hydrolysis by human intestine s9 fractions” value in [3] is “No appreciable activation”.

Regarding `CC(=O)Oc1ccc([N+](=O)[O-])cc1` [PNPA, p-nitrophenyl acetate], in data set [2], the “Hydrolysis by human kidney s9 fractions” value is listed as “readily hydrolyzed”. For the same molecule, the “Hydrolysis by human intestine s9 fractions” value in [3] is “readily hydrolyzed”.

Take `CCC[C@H](N[C@@H](C)C(=O)N1[C@H](C(=O)O)C[C@@H]2CCCC[C@@H]21)C(=O)OCC` [Perindopril, perindopril erbumine]: in [1], the Vmax is recorded as 18.1 ± 0.8 nmole/min/mg protein, the Km came to 1770 ± 165 µM and the “Hydrolysis … by human liver s9 fractions” value is “efficiently hydrolyzed”. The “Hydrolysis by human kidney s9 fractions” value in data set [2] is “No appreciable activation”. The “Hydrolysis by human intestine s9 fractions” value in [3] is on record as “No appreciable activation”.

Turning to `CCOC(=O)[C@H](CCc1ccccc1)N[C@@H](C)C(=O)N1[C@H](C(=O)O)C[C@@H]2CCC[C@@H]21` [Ramipril, ramipril], in data set [1], the Vmax was determined as 18.1 ± 0.7 nmole/min/mg protein, the Km turned out to be 690 ± 61.8 µM and the “Hydrolysis … by human liver s9 fractions” value is listed as “efficiently hydrolyzed”. Also, the “Active metabolite after incubation with CES1 variant G143E” value in [4] is reported as “not detected”. Further, the “Hydrolysis by human kidney s9 fractions” value in data set [2] is “No appreciable activation”. Besides, the “Hydrolysis to active metabolite by WT CES1” value in data set [5] was “readily hydrolyzed”. The “Hydrolysis by human intestine s9 fractions” value in data set [3] is “No appreciable activation”.

Take `COC(=O)[C@H](c1ccccc1Cl)N1CC[C@@H](S)/C(=C\C(=O)O)C1` [clopidogrel active metabolite]: in [6], the “concentrations higher in patients carrying heterozygous 143E relative to 143GG” value was “approximately 60%”.

For `COC(=O)[C@H](c1ccccc1Cl)N1CCc2sccc2C1` [clopidogrel], the “Function of the G143E variant for metabolism of the substrate” value (from here on “Function of the G143E variant”) in [7] is given as “loss-of-function”.

Consider `CCc1c2c(nc3ccc(OC(=O)N4CCC(N5CCCCC5)CC4)cc13)-c1cc3c(c(=O)n1C2)COC(=O)[C@]3(O)CC` [irinotecan], for which the “median AUC ratios of metabolites SN-38 and SN-38G to parent compound, higher in CES1P1VAR heterozygous and homozygous patients vs CES1P1/CES1P1” value in data set [8] is 24%.

In the case of `COC(=O)C(c1ccccc1)C1CCCCN1` (centres unmarked) [methylphenidate], the “Function of the G143E variant” value in [7] is “loss-of-function”.

In the case of `CCC(CC)O[C@@H]1C=C(C(=O)O)C[C@H](N)[C@H]1NC(C)=O` [oseltamivir carboxylate], in [9], the “mean Cmax lower in 143E heterozygotes than in non-carriers” value was 17.5%.

For `CCOC(=O)C1=C[C@@H](OC(CC)CC)[C@H](NC(C)=O)[C@@H](N)C1` [oseltamivir], the “Metabolism in healthy subjects with different CES1/CES1VAR genotypes” value in [10] is recorded as “not significantly different”.

Turning to `CCOC(=O)[C@H](CCc1ccccc1)N[C@@H](C)C(=O)N1[C@H](C(=O)O)C[C@H]2CCCC[C@@H]21` [trandolapril], the “CES1 activity in the null-CES1 liver samples (some G143E non-carriers)” value in data set [11] was “inactive”. The “Function of the G143E variant” value in data set [7] is recorded as “loss-of-function”.

B1: wild type (WT) CES1 (Homo sapiens) (protein)
chain: T1 sequence (P23141 18-568 isoform P23141-2 G143E limits assumed) with E126G
With B1, the Km in data set [12] was found to be 477.5 ± 60.9 µM; in data set [13], 36.6 ± 4.5 µM; in data set [14] it was 245.6 ± 39.9 µM; in data set [15], 276.1 ± 83.2 µM; in [16] it was 143.6 ± 24.5 µM. Further, the Vmax in [12] was 8.3 ± 0.4 nmole/min/mg protein; in [13] it was 389.0 ± 16.1 pmole/min/mg protein; in data set [14], 11.6 ± 0.6 nmole/min/mg protein; in [15], 1.6 ± 0.1 nmole/min/mg protein; in data set [16] it was 1.8 ± 0.1 nmole/min/mg protein. Besides, the Vmax/Km in data set [12] is recorded as 17.4 μl/min/mg protein; in data set [13] it was 10.6 μl/min/mg protein; in data set [14] it was 47.1 μl/min/mg protein; in data set [15], 5.7 μl/min/mg protein; in [16], 12.4 μl/min/mg protein.
